# According to patent US7709636B2, “Pyrazole sulfonylurea compound and herbicide” (Nissan Chemical Industries, Ltd., priority 2004, dated 2010):
# Columns and labels:
# Beta vulgaris (beet) [1] = test: Herbicidal effect test by foliage treatment; format: in vivo; settings: 1.6 g/a; foliage treatment after growth of 14 days; 3 weeks after treatment
# In short: (§1)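 Seeds sown in sterilized diluvial soil, covered with about 1.5 cm soil and grown 14 days in a greenhouse at 25 to 30° C. Foliage then sprayed uniformly with water-diluted wettable powder at a predetermined formulation amount; herbicidal effect scored 3 weeks after treatment.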
# Echinochloa crus-galli [2] = test: Herbicidal effect test by foliage treatment; format: in vivo; settings: 1.6 g/a; foliage treatment after growth of 14 days; 3 weeks after treatment
# In short: as §1
# Amaranthus retroflexus [3] = test: Herbicidal effect test by foliage treatment; format: in vivo; settings: 1.6 g/a; foliage treatment after growth of 14 days; 3 weeks after treatment
# In short: as §1
# Ambrosia elatior [4] = test: Herbicidal effect test by foliage treatment; format: in vivo; settings: 1.6 g/a; foliage treatment after growth of 14 days; 3 weeks after treatment
# In short: as §1
# Setaria viridis [5] = test: Herbicidal effect test by foliage treatment; format: in vivo; settings: 1.6 g/a; foliage treatment after growth of 14 days; 3 weeks after treatment
# In short: as §1
# Abutilon avicennae [6] = test: Herbicidal effect test by foliage treatment; format: in vivo; settings: 1.6 g/a; foliage treatment after growth of 14 days; 3 weeks after treatment
# In short: as §1
# Chenopodium album [7] = test: Herbicidal effect test by foliage treatment; format: in vivo; settings: 1.6 g/a; foliage treatment after growth of 14 days; 3 weeks after treatment
# In short: as §1
# [8] = tested on: Triticum aestivum (wheat); test: Herbicidal effect test by foliage treatment; format: in vivo; settings: 1.6 g/a; foliage treatment after growth of 14 days; 3 weeks after treatment
# In short: as §1
# Polygonum blumei [9] = test: Herbicidal effect test by foliage treatment; format: in vivo; settings: 1.6 g/a; foliage treatment after growth of 14 days; 3 weeks after treatment
# In short: as §1
# Avena fatua [10] = test: Herbicidal effect test by foliage treatment; format: in vivo; settings: 1.6 g/a; foliage treatment after growth of 14 days; 3 weeks after treatment
# In short: as §1
# corn (Zea mays) [11] = test: Herbicidal effect test by foliage treatment; format: in vivo; settings: 1.6 g/a; foliage treatment after growth of 14 days; 3 weeks after treatment
# In short: as §1
# Digitaria adscendes [12] = test: Herbicidal effect test by foliage treatment; format: in vivo; settings: 1.6 g/a; foliage treatment after growth of 14 days; 3 weeks after treatment
# In short: as §1
# Black-grass [13] = test: Herbicidal effect test by foliage treatment; format: in vivo; settings: 1.6 g/a; foliage treatment after growth of 14 days; 3 weeks after treatment
# In short: as §1
# Stellaria media [14] = test: Herbicidal effect test by foliage treatment; format: in vivo; settings: 1.6 g/a; foliage treatment after growth of 14 days; 3 weeks after treatment
# In short: as §1
# soybean (Glycine max) [15] = test: Herbicidal effect test by foliage treatment; format: in vivo; settings: 1.6 g/a; foliage treatment after growth of 14 days; 3 weeks after treatment
# In short: as §1
# Beta vulgaris (beet) [16] = test: Herbicidal effect test by soil treatment; format: in vivo; settings: 1.6 g/a, 3 weeks after treatment
# In short: (§2)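 Seeds were sown in sterilized diluvial soil and covered with about 1.5 cm of soil. A wettable powder diluted in water to a predetermined formulation amount was sprayed uniformly on the soil surface. Herbicidal effect was scored visually 3 weeks after treatment.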
# Echinochloa crus-galli [17] = test: Herbicidal effect test by soil treatment; format: in vivo; settings: 1.6 g/a, 3 weeks after treatment
# In short: as §2
# Amaranthus retroflexus [18] = test: Herbicidal effect test by soil treatment; format: in vivo; settings: 1.6 g/a, 3 weeks after treatment
# In short: as §2
# Ambrosia elatior [19] = test: Herbicidal effect test by soil treatment; format: in vivo; settings: 1.6 g/a, 3 weeks after treatment
# In short: as §2
# Setaria viridis [20] = test: Herbicidal effect test by soil treatment; format: in vivo; settings: 1.6 g/a, 3 weeks after treatment
# In short: as §2
# Abutilon avicennae [21] = test: Herbicidal effect test by soil treatment; format: in vivo; settings: 1.6 g/a, 3 weeks after treatment
# In short: as §2
# Chenopodium album [22] = test: Herbicidal effect test by soil treatment; format: in vivo; settings: 1.6 g/a, 3 weeks after treatment
# In short: as §2
# [23] = tested on: Triticum aestivum (wheat); test: Herbicidal effect test by soil treatment; format: in vivo; settings: 1.6 g/a, 3 weeks after treatment
# In short: as §2
# Polygonum blumei [24] = test: Herbicidal effect test by soil treatment; format: in vivo; settings: 1.6 g/a, 3 weeks after treatment
# In short: as §2
# Avena fatua [25] = test: Herbicidal effect test by soil treatment; format: in vivo; settings: 1.6 g/a, 3 weeks after treatment
# In short: as §2
# corn (Zea mays) [26] = test: Herbicidal effect test by soil treatment; format: in vivo; settings: 1.6 g/a, 3 weeks after treatment
# In short: as §2
# Digitaria adscendes [27] = test: Herbicidal effect test by soil treatment; format: in vivo; settings: 1.6 g/a, 3 weeks after treatment
# In short: as §2
# Black-grass [28] = test: Herbicidal effect test by soil treatment; format: in vivo; settings: 1.6 g/a, 3 weeks after treatment
# In short: as §2
# Stellaria media [29] = test: Herbicidal effect test by soil treatment; format: in vivo; settings: 1.6 g/a, 3 weeks after treatment
# In short: as §2
# soybean (Glycine max) [30] = test: Herbicidal effect test by soil treatment; format: in vivo; settings: 1.6 g/a, 3 weeks after treatment
# In short: as §2
# Echinochloa crus-galli [31] = test: Herbicidal effect test in submerged condition by treatment during weed-growth stage (1); format: in vivo; settings: 0.64 g/a, treated at 1st to 2nd leaf stage, 3 weeks after treatment
# In short: (§3)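 Paddy-soil pots flooded to 4 cm water depth were sown and grown in a greenhouse at 25 to 30° C until weeds reached 1st to 2nd leaf stage. A wettable powder diluted in water to a predetermined formulation amount was applied to the water surface. Herbicidal effect was scored 3 weeks after treatment against set criteria.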
# Monochoria vaginalis [32] = test: as above; format: in vivo; settings: 0.64 g/a, treated at 1st to 2nd leaf stage, 3 weeks after treatment
# In short: as §3
# Scirpus juncoides [33] = test: as above; format: in vivo; settings: 0.64 g/a, treated at 1st to 2nd leaf stage, 3 weeks after treatment
# In short: as §3
# direct sown rice [34] = test: Herbicidal effect test by soil treatment; format: in vivo, Oryza sativa; settings: 1.6 g/a, 3 weeks after treatment
# In short: as §2
# direct sown rice [35] = test: Herbicidal effect test by foliage treatment; format: in vivo, Oryza sativa; settings: 1.6 g/a; foliage treatment after growth of 14 days; 3 weeks after treatment
# In short: as §1
# Echinochloa crus-galli [36] = test: Herbicidal effect test in submerged condition by treatment before weed-generation (1); format: in vivo; settings: 0.64 g/a, water surface treated on day of sowing, 3 weeks after treatment
# In short: (§4)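 Alluvial soil flooded to 4 cm depth; weeds sown and rice seedlings (2.5-leaf stage) transplanted, then wettable powder diluted in water applied to the water surface on sowing day. Greenhouse at 25 to 30° C; herbicidal effect scored 0–5 after 3 weeks (5 = ≥90% kill, 0 = ≤5%).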
# Monochoria vaginalis [37] = test: as above; format: in vivo; settings: 0.64 g/a, water surface treated on day of sowing, 3 weeks after treatment
# In short: as §4
# Scirpus juncoides [38] = test: as above; format: in vivo; settings: 0.64 g/a, water surface treated on day of sowing, 3 weeks after treatment
# In short: as §4
compound,measurement,setting,value
"COc1cc(OC)nc(NC(=O)NS(=O)(=O)c2c(C3=NOCC(C)(C)O3)c(C)nn2C)n1 [Compound 7, N-((4,6-dimethoxypyrimidin-2-yl)aminocarbonyl)-4-(5,5-dimethyl-5H,6H-1,4,2-dioxadin-3-yl)-1,3-dimethylpyrazole-5-sulfonamide]","herbicidal effect, f: Beta vulgaris (beet)",Beta vulgaris (beet) [1],5 (Herbicidal rate 90% or more (almost complete death))
same,"herbicidal effect, A: Echinochloa crus-galli",Echinochloa crus-galli [2],5 (Herbicidal rate 90% or more (almost complete death))
same,"herbicidal effect, J: Amaranthus retroflexus",Amaranthus retroflexus [3],4 (Herbicidal rate 70% or more and less than 90%)
same,"herbicidal effect, I: Ambrosia elatior",Ambrosia elatior [4],5 (Herbicidal rate 90% or more (almost complete death))
same,"herbicidal effect, E: Setaria viridis",Setaria viridis [5],4 (Herbicidal rate 70% or more and less than 90%)
same,"herbicidal effect, H: Abutilon avicennae",Abutilon avicennae [6],5 (Herbicidal rate 90% or more (almost complete death))
same,"herbicidal effect, K: Chenopodium album",Chenopodium album [7],5 (Herbicidal rate 90% or more (almost complete death))
same,"herbicidal effect, e: Triticum aestivum (wheat)",[8],5 (Herbicidal rate 90% or more (almost complete death))
same,"herbicidal effect, L: Polygonum blumei",Polygonum blumei [9],5 (Herbicidal rate 90% or more (almost complete death))
same,"herbicidal effect, F: Avena fatua",Avena fatua [10],5 (Herbicidal rate 90% or more (almost complete death))
same,"herbicidal effect, b: corn (Zea mays)",corn (Zea mays) [11],5 (Herbicidal rate 90% or more (almost complete death))
same,"herbicidal effect, D: Digitaria adscendes",Digitaria adscendes [12],5 (Herbicidal rate 90% or more (almost complete death))
same,"herbicidal effect, G: Black-grass",Black-grass [13],5 (Herbicidal rate 90% or more (almost complete death))
same,"herbicidal effect, M: Stellaria media",Stellaria media [14],5 (Herbicidal rate 90% or more (almost complete death))
same,"herbicidal effect, c: soybean (Glycine max)",soybean (Glycine max) [15],5 (Herbicidal rate 90% or more (almost complete death))
same,"herbicidal effect, f: Beta vulgaris (beet)",Beta vulgaris (beet) [16],5 (Herbicidal rate 90% or more (almost complete death))
same,"herbicidal effect, A: Echinochloa crus-galli",Echinochloa crus-galli [17],4 (Herbicidal rate 70% or more and less than 90%)
same,"herbicidal effect, J: Amaranthus retroflexus",Amaranthus retroflexus [18],5 (Herbicidal rate 90% or more (almost complete death))
same,"herbicidal effect, I: Ambrosia elatior",Ambrosia elatior [19],5 (Herbicidal rate 90% or more (almost complete death))
same,"herbicidal effect, E: Setaria viridis",Setaria viridis [20],4 (Herbicidal rate 70% or more and less than 90%)
same,"herbicidal effect, H: Abutilon avicennae",Abutilon avicennae [21],4 (Herbicidal rate 70% or more and less than 90%)
same,"herbicidal effect, K: Chenopodium album",Chenopodium album [22],5 (Herbicidal rate 90% or more (almost complete death))
same,"herbicidal effect, e: Triticum aestivum (wheat)",[23],5 (Herbicidal rate 90% or more (almost complete death))
same,"herbicidal effect, L: Polygonum blumei",Polygonum blumei [24],5 (Herbicidal rate 90% or more (almost complete death))
same,"herbicidal effect, F: Avena fatua",Avena fatua [25],4 (Herbicidal rate 70% or more and less than 90%)
same,"herbicidal effect, b: corn (Zea mays)",corn (Zea mays) [26],4 (Herbicidal rate 70% or more and less than 90%)
same,"herbicidal effect, D: Digitaria adscendes",Digitaria adscendes [27],4 (Herbicidal rate 70% or more and less than 90%)
same,"herbicidal effect, G: Black-grass",Black-grass [28],5 (Herbicidal rate 90% or more (almost complete death))
same,"herbicidal effect, M: Stellaria media",Stellaria media [29],5 (Herbicidal rate 90% or more (almost complete death))
same,"herbicidal effect, c: soybean (Glycine max)",soybean (Glycine max) [30],3 (Herbicidal rate 40% or more and less than 70%)
same,"herbicidal effect, A: Echinochloa crus-galli",Echinochloa crus-galli [31],5 (Herbicidal rate 90% or more (almost complete death))
same,"herbicidal effect, C: Monochoria vaginalis",Monochoria vaginalis [32],5 (Herbicidal rate 90% or more (almost complete death))
same,"herbicidal effect, B: Scirpus juncoides",Scirpus juncoides [33],5 (Herbicidal rate 90% or more (almost complete death))
same,"herbicidal effect, d: direct sown rice",direct sown rice [34],5 (Herbicidal rate 90% or more (almost complete death))
same,"herbicidal effect, d: direct sown rice",direct sown rice [35],2 (Herbicidal rate 20% or more and less than 40%)
same,"herbicidal effect, A: Echinochloa crus-galli",Echinochloa crus-galli [36],5 (Herbicidal rate 90% or more (almost complete death))
same,"herbicidal effect, C: Monochoria vaginalis",Monochoria vaginalis [37],5 (Herbicidal rate 90% or more (almost complete death))
same,"herbicidal effect, B: Scirpus juncoides",Scirpus juncoides [38],5 (Herbicidal rate 90% or more (almost complete death))
